Laboratory results as given in ChEMBL document CHEMBL1909294, “Translating clinical findings into knowledge in drug safety evaluation--drug induced liver injury prediction system (DILIps)” (PLoS Comput Biol, 2011).

How the values were obtained:
Hepatotoxicity [1] = system: Hepatotoxicity;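 on HepSE cholecystitis: Cholecystitis-related hepatic side effect score drawn from the DILIps (drug-induced liver injury prediction) training data set; call rule not given here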;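 on HepSE cholelithiasis: hepatic side effect score for cholelithiasis, drawn from the DILIps training data for predicting drug-induced liver injury; call rule not given here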;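 on HepSE cirrhosis: cirrhosis hepatic side effect score taken from the DILIps (drug-induced liver injury prediction) training set; call rule not given here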;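 on HepSE elevated liver function tests: hepatic side effect score for raised liver function tests, as recorded in the DILIps training set used for predicting drug-induced liver injury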;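 on HepSE hepatomegaly: hepatic side effect score for hepatomegaly, taken from the training set of the DILIps drug-induced liver injury prediction system; call rule not given here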;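 on HepSE jaundice: Jaundice-related hepatic side-effect score drawn from the training data of the DILIps (drug-induced liver injury prediction system); call rule not given here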; on HepSE liver disease: call rule not given here
Hepatotoxicity [2] = system: Hepatotoxicity; remark: listed apart in the source;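 on HepSE cholecystitis: Cholecystitis-related hepatic side effect score drawn from the DILIps (drug-induced liver injury prediction) training data set; call rule not given here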;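 on HepSE cholelithiasis: hepatic side effect score for cholelithiasis, drawn from the DILIps training data for predicting drug-induced liver injury; call rule not given here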;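 on HepSE cirrhosis: cirrhosis hepatic side effect score taken from the DILIps (drug-induced liver injury prediction) training set; call rule not given here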;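 on HepSE elevated liver function tests: hepatic side effect score for raised liver function tests, as recorded in the DILIps training set used for predicting drug-induced liver injury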;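 on HepSE hepatomegaly: hepatic side effect score for hepatomegaly, taken from the training set of the DILIps drug-induced liver injury prediction system; call rule not given here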;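 on HepSE jaundice: Jaundice-related hepatic side-effect score drawn from the training data of the DILIps (drug-induced liver injury prediction system); call rule not given here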; on HepSE liver disease: call rule not given here
Hepatotoxicity [3] = system: Hepatotoxicity; remark: listed apart in the source;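 on HepSE cholecystitis: Cholecystitis-related hepatic side effect score drawn from the DILIps (drug-induced liver injury prediction) training data set; call rule not given here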;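 on HepSE cirrhosis: cirrhosis hepatic side effect score taken from the DILIps (drug-induced liver injury prediction) training set; call rule not given here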;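 on HepSE elevated liver function tests: hepatic side effect score for raised liver function tests, as recorded in the DILIps training set used for predicting drug-induced liver injury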;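 on HepSE hepatomegaly: hepatic side effect score for hepatomegaly, taken from the training set of the DILIps drug-induced liver injury prediction system; call rule not given here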;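 on HepSE jaundice: Jaundice-related hepatic side-effect score drawn from the training data of the DILIps (drug-induced liver injury prediction system); call rule not given here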; on HepSE liver disease: call rule not given here
Hepatotoxicity [4] = system: Hepatotoxicity; remark: listed apart in the source;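 on HepSE cholecystitis: Cholecystitis-related hepatic side effect score drawn from the DILIps (drug-induced liver injury prediction) training data set; call rule not given here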;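 on HepSE cirrhosis: cirrhosis hepatic side effect score taken from the DILIps (drug-induced liver injury prediction) training set; call rule not given here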;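 on HepSE elevated liver function tests: hepatic side effect score for raised liver function tests, as recorded in the DILIps training set used for predicting drug-induced liver injury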;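 on HepSE hepatomegaly: hepatic side effect score for hepatomegaly, taken from the training set of the DILIps drug-induced liver injury prediction system; call rule not given here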;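 on HepSE jaundice: Jaundice-related hepatic side-effect score drawn from the training data of the DILIps (drug-induced liver injury prediction system); call rule not given here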; on HepSE liver disease: call rule not given here
Hepatotoxicity [5] = system: Hepatotoxicity; remark: listed apart in the source; on HepSE liver disease: call rule not given here
Hepatotoxicity [6] = system: Hepatotoxicity; remark: listed apart in the source; on HepSE liver disease: call rule not given here
Hepatotoxicity [7] = system: Hepatotoxicity; remark: listed apart in the source
Hepatotoxicity [8] = system: Hepatotoxicity; remark: listed apart in the source
Hepatotoxicity [9] = system: Hepatotoxicity; remark: listed apart in the source
Hepatotoxicity [10] = system: Hepatotoxicity; remark: listed apart in the source
Hepatotoxicity [11] = system: Hepatotoxicity; remark: listed apart in the source
Hepatotoxicity [12] = system: Hepatotoxicity; remark: listed apart in the source
Hepatotoxicity [13] = system: Hepatotoxicity; remark: listed apart in the source
Hepatotoxicity [14] = system: Hepatotoxicity; remark: listed apart in the source

## O=C[C@H](O)[C@@H](O)[C@@H](O)[C@H](O)CO [GALACTOSE]
Hepatotoxicity [1]
  HepSE_cirrhosis: 0
Hepatotoxicity [2]
  HepSE_cholecystitis: 0
Hepatotoxicity [3]
  HepSE_hepatomegaly: 0
Hepatotoxicity [4]
  HepSE_elevated liver function tests: 0
Hepatotoxicity [5]
  HepSE_liver disease: 0
Hepatotoxicity [6]
  HepSE_jaundice: 0
Hepatotoxicity [7]
  HepSE_cholelithiasis: 0
Hepatotoxicity [8]
  HepSE_hepatic necrosis: 0
Hepatotoxicity [9]
  HepSE_liver fatty: 0
Hepatotoxicity [10]
  HepSE_hepatitis: 0
Hepatotoxicity [11]
  HepSE_bilirubinemia: 0
Hepatotoxicity [12]
  HepSE_liver function tests abnormal: 0
Hepatotoxicity [13]
  HepSE_Combined Scores: 0
Hepatotoxicity [14]
  HepSE_hepatic failure: 0

## COc1ccc2c3c1O[C@H]1C[C@@H](O)C=C[C@@]31CCN(C)C2 [GALANTAMINE]
Hepatotoxicity [1]
  HepSE_cirrhosis: 0
Hepatotoxicity [2]
  HepSE_cholecystitis: 0
Hepatotoxicity [3]
  HepSE_hepatomegaly: 0
Hepatotoxicity [4]
  HepSE_elevated liver function tests: 0
Hepatotoxicity [5]
  HepSE_liver disease: 0
Hepatotoxicity [6]
  HepSE_jaundice: 0
Hepatotoxicity [7]
  HepSE_cholelithiasis: 0
Hepatotoxicity [8]
  HepSE_hepatic necrosis: 0
Hepatotoxicity [9]
  HepSE_liver fatty: 0
Hepatotoxicity [10]
  HepSE_hepatitis: 1
Hepatotoxicity [11]
  HepSE_bilirubinemia: 0
Hepatotoxicity [12]
  HepSE_liver function tests abnormal: 0
Hepatotoxicity [13]
  HepSE_Combined Scores: 1
Hepatotoxicity [14]
  HepSE_hepatic failure: 0

## NCCCC(=O)O [GAMMA-AMINOBUTYRIC ACID]
Hepatotoxicity [1]
  HepSE_cirrhosis: 0
Hepatotoxicity [2]
  HepSE_cholecystitis: 0
Hepatotoxicity [3]
  HepSE_hepatomegaly: 0
Hepatotoxicity [4]
  HepSE_elevated liver function tests: 0
Hepatotoxicity [5]
  HepSE_liver disease: 0
Hepatotoxicity [6]
  HepSE_jaundice: 0
Hepatotoxicity [7]
  HepSE_cholelithiasis: 0
Hepatotoxicity [8]
  HepSE_hepatic necrosis: 0
Hepatotoxicity [9]
  HepSE_liver fatty: 0
Hepatotoxicity [10]
  HepSE_hepatitis: 0
Hepatotoxicity [11]
  HepSE_bilirubinemia: 0
Hepatotoxicity [12]
  HepSE_liver function tests abnormal: 0
Hepatotoxicity [13]
  HepSE_Combined Scores: 0
Hepatotoxicity [14]
  HepSE_hepatic failure: 0

## Nc1nc(O)c2ncn(COC(CO)CO)c2n1 [GANCICLOVIR]
Hepatotoxicity [1]
  HepSE_cirrhosis: 0
Hepatotoxicity [2]
  HepSE_cholecystitis: 0
Hepatotoxicity [3]
  HepSE_hepatomegaly: 0
Hepatotoxicity [4]
  HepSE_elevated liver function tests: 0
Hepatotoxicity [5]
  HepSE_liver disease: 0
Hepatotoxicity [6]
  HepSE_jaundice: 1
Hepatotoxicity [7]
  HepSE_cholelithiasis: 1
Hepatotoxicity [8]
  HepSE_hepatic necrosis: 0
Hepatotoxicity [9]
  HepSE_liver fatty: 0
Hepatotoxicity [10]
  HepSE_hepatitis: 1
Hepatotoxicity [11]
  HepSE_bilirubinemia: 0
Hepatotoxicity [12]
  HepSE_liver function tests abnormal: 0
Hepatotoxicity [13]
  HepSE_Combined Scores: 4
Hepatotoxicity [14]
  HepSE_hepatic failure: 1

## COc1c(N2CCNC(C)C2)c(F)cc2c(=O)c(C(=O)O)cn(C3CC3)c12 (configuration not stated) [GATIFLOXACIN]
Hepatotoxicity [1]
  HepSE_cirrhosis: 0
Hepatotoxicity [2]
  HepSE_cholecystitis: 0
Hepatotoxicity [3]
  HepSE_hepatomegaly: 0
Hepatotoxicity [4]
  HepSE_elevated liver function tests: 0
Hepatotoxicity [5]
  HepSE_liver disease: 0
Hepatotoxicity [6]
  HepSE_jaundice: 0
Hepatotoxicity [7]
  HepSE_cholelithiasis: 0
Hepatotoxicity [8]
  HepSE_hepatic necrosis: 0
Hepatotoxicity [9]
  HepSE_liver fatty: 0
Hepatotoxicity [10]
  HepSE_hepatitis: 1
Hepatotoxicity [11]
  HepSE_bilirubinemia: 0
Hepatotoxicity [12]
  HepSE_liver function tests abnormal: 0
Hepatotoxicity [13]
  HepSE_Combined Scores: 1
Hepatotoxicity [14]
  HepSE_hepatic failure: 0

## COc1cc2ncnc(Nc3ccc(F)c(Cl)c3)c2cc1OCCCN1CCOCC1 [GEFITINIB]
Hepatotoxicity [1]
  HepSE_cirrhosis: 0
Hepatotoxicity [2]
  HepSE_cholecystitis: 0
Hepatotoxicity [3]
  HepSE_hepatomegaly: 0
Hepatotoxicity [4]
  HepSE_elevated liver function tests: 0
Hepatotoxicity [5]
  HepSE_liver disease: 0
Hepatotoxicity [6]
  HepSE_jaundice: 0
Hepatotoxicity [7]
  HepSE_cholelithiasis: 0
Hepatotoxicity [8]
  HepSE_hepatic necrosis: 0
Hepatotoxicity [9]
  HepSE_liver fatty: 0
Hepatotoxicity [10]
  HepSE_hepatitis: 0
Hepatotoxicity [11]
  HepSE_bilirubinemia: 0
Hepatotoxicity [12]
  HepSE_liver function tests abnormal: 0
Hepatotoxicity [13]
  HepSE_Combined Scores: 0
Hepatotoxicity [14]
  HepSE_hepatic failure: 0

## Nc1ccn([C@@H]2O[C@H](CO)[C@@H](O)C2(F)F)c(=O)n1 [GEMCITABINE]
Hepatotoxicity [1]
  HepSE_cirrhosis: 0
Hepatotoxicity [2]
  HepSE_cholecystitis: 0
Hepatotoxicity [3]
  HepSE_hepatomegaly: 0
Hepatotoxicity [4]
  HepSE_elevated liver function tests: 0
Hepatotoxicity [5]
  HepSE_liver disease: 0
Hepatotoxicity [6]
  HepSE_jaundice: 0
Hepatotoxicity [7]
  HepSE_cholelithiasis: 0
Hepatotoxicity [8]
  HepSE_hepatic necrosis: 0
Hepatotoxicity [9]
  HepSE_liver fatty: 0
Hepatotoxicity [10]
  HepSE_hepatitis: 0
Hepatotoxicity [11]
  HepSE_bilirubinemia: 0
Hepatotoxicity [12]
  HepSE_liver function tests abnormal: 0
Hepatotoxicity [13]
  HepSE_Combined Scores: 1
Hepatotoxicity [14]
  HepSE_hepatic failure: 1

## Cc1ccc(C)c(OCCCC(C)(C)C(=O)O)c1 [GEMFIBROZIL]
Hepatotoxicity [1]
  HepSE_cirrhosis: 0
Hepatotoxicity [2]
  HepSE_cholecystitis: 1
Hepatotoxicity [3]
  HepSE_hepatomegaly: 0
Hepatotoxicity [4]
  HepSE_elevated liver function tests: 0
Hepatotoxicity [5]
  HepSE_liver disease: 0
Hepatotoxicity [6]
  HepSE_jaundice: 1
Hepatotoxicity [7]
  HepSE_cholelithiasis: 1
Hepatotoxicity [8]
  HepSE_hepatic necrosis: 0
Hepatotoxicity [9]
  HepSE_liver fatty: 0
Hepatotoxicity [10]
  HepSE_hepatitis: 0
Hepatotoxicity [11]
  HepSE_bilirubinemia: 0
Hepatotoxicity [12]
  HepSE_liver function tests abnormal: 1
Hepatotoxicity [13]
  HepSE_Combined Scores: 4
Hepatotoxicity [14]
  HepSE_hepatic failure: 0

## CO/N=C1\CN(c2nc3c(cc2F)c(=O)c(C(=O)O)cn3C2CC2)CC1CN (configuration not stated) [GEMIFLOXACIN]
Hepatotoxicity [1]
  HepSE_cirrhosis: 0
Hepatotoxicity [2]
  HepSE_cholecystitis: 0
Hepatotoxicity [3]
  HepSE_hepatomegaly: 0
Hepatotoxicity [4]
  HepSE_elevated liver function tests: 0
Hepatotoxicity [5]
  HepSE_liver disease: 0
Hepatotoxicity [6]
  HepSE_jaundice: 1
Hepatotoxicity [7]
  HepSE_cholelithiasis: 0
Hepatotoxicity [8]
  HepSE_hepatic necrosis: 0
Hepatotoxicity [9]
  HepSE_liver fatty: 0
Hepatotoxicity [10]
  HepSE_hepatitis: 1
Hepatotoxicity [11]
  HepSE_bilirubinemia: 1
Hepatotoxicity [12]
  HepSE_liver function tests abnormal: 0
Hepatotoxicity [13]
  HepSE_Combined Scores: 3
Hepatotoxicity [14]
  HepSE_hepatic failure: 0

## Cc1ccc(S(=O)(=O)NC(=O)NN2CC3CCCC3C2)cc1 (configuration not stated) [GLICLAZIDE]
Hepatotoxicity [1]
  HepSE_cirrhosis: 0
Hepatotoxicity [2]
  HepSE_cholecystitis: 0
Hepatotoxicity [3]
  HepSE_hepatomegaly: 1
Hepatotoxicity [4]
  HepSE_elevated liver function tests: 0
Hepatotoxicity [5]
  HepSE_liver disease: 0
Hepatotoxicity [6]
  HepSE_jaundice: 1
Hepatotoxicity [7]
  HepSE_cholelithiasis: 0
Hepatotoxicity [8]
  HepSE_hepatic necrosis: 0
Hepatotoxicity [9]
  HepSE_liver fatty: 0
Hepatotoxicity [10]
  HepSE_hepatitis: 1
Hepatotoxicity [11]
  HepSE_bilirubinemia: 0
Hepatotoxicity [12]
  HepSE_liver function tests abnormal: 0
Hepatotoxicity [13]
  HepSE_Combined Scores: 4
Hepatotoxicity [14]
  HepSE_hepatic failure: 1

## CCC1=C(C)CN(C(=O)NCCc2ccc(S(=O)(=O)NC(=O)N[C@H]3CC[C@H](C)CC3)cc2)C1=O [GLIMEPIRIDE]
Hepatotoxicity [1]
  HepSE_cirrhosis: 0
Hepatotoxicity [2]
  HepSE_cholecystitis: 0
Hepatotoxicity [3]
  HepSE_hepatomegaly: 0
Hepatotoxicity [4]
  HepSE_elevated liver function tests: 0
Hepatotoxicity [5]
  HepSE_liver disease: 0
Hepatotoxicity [6]
  HepSE_jaundice: 1
Hepatotoxicity [7]
  HepSE_cholelithiasis: 0
Hepatotoxicity [8]
  HepSE_hepatic necrosis: 0
Hepatotoxicity [9]
  HepSE_liver fatty: 0
Hepatotoxicity [10]
  HepSE_hepatitis: 1
Hepatotoxicity [11]
  HepSE_bilirubinemia: 0
Hepatotoxicity [12]
  HepSE_liver function tests abnormal: 0
Hepatotoxicity [13]
  HepSE_Combined Scores: 3
Hepatotoxicity [14]
  HepSE_hepatic failure: 1

## NC(=O)CC[C@H](N)C(=O)O [GLUTAMINE]
Hepatotoxicity [1]
  HepSE_cirrhosis: 0
Hepatotoxicity [2]
  HepSE_cholecystitis: 0
Hepatotoxicity [3]
  HepSE_hepatomegaly: 0
Hepatotoxicity [4]
  HepSE_elevated liver function tests: 0
Hepatotoxicity [5]
  HepSE_liver disease: 0
Hepatotoxicity [6]
  HepSE_jaundice: 0
Hepatotoxicity [7]
  HepSE_cholelithiasis: 0
Hepatotoxicity [8]
  HepSE_hepatic necrosis: 0
Hepatotoxicity [9]
  HepSE_liver fatty: 0
Hepatotoxicity [10]
  HepSE_hepatitis: 0
Hepatotoxicity [11]
  HepSE_bilirubinemia: 0
Hepatotoxicity [12]
  HepSE_liver function tests abnormal: 0
Hepatotoxicity [13]
  HepSE_Combined Scores: 0
Hepatotoxicity [14]
  HepSE_hepatic failure: 0

## COc1ccc(Cl)cc1C(=O)NCCc1ccc(S(=O)(=O)NC(=O)NC2CCCCC2)cc1 [GLYBURIDE]
Hepatotoxicity [1]
  HepSE_cirrhosis: 0
Hepatotoxicity [2]
  HepSE_cholecystitis: 0
Hepatotoxicity [3]
  HepSE_hepatomegaly: 0
Hepatotoxicity [4]
  HepSE_elevated liver function tests: 0
Hepatotoxicity [5]
  HepSE_liver disease: 0
Hepatotoxicity [6]
  HepSE_jaundice: 1
Hepatotoxicity [7]
  HepSE_cholelithiasis: 0
Hepatotoxicity [8]
  HepSE_hepatic necrosis: 0
Hepatotoxicity [9]
  HepSE_liver fatty: 0
Hepatotoxicity [10]
  HepSE_hepatitis: 1
Hepatotoxicity [11]
  HepSE_bilirubinemia: 0
Hepatotoxicity [12]
  HepSE_liver function tests abnormal: 0
Hepatotoxicity [13]
  HepSE_Combined Scores: 3
Hepatotoxicity [14]
  HepSE_hepatic failure: 1
